According to patent US5118681A (priority 1989, dated 1992):
≈ marks a conversion by molar mass, not a printed value. Like-named read-outs stand apart in the source and are kept apart here.

What was measured:
[1] = system: Pellicularia filamentosa (f. sp. sasiki); test: whole plant or invertebrate; assay type: in vivo
Phytophthora infestans = test: whole plant or invertebrate; assay type: in vivo; conditions: for pest or weed control at 300 ppm / pest or weed control at 200 ppm / pest or weed control at 100 ppm: Phytophthora infestans, in Solanum lycopersicum, 96 h, read-out: % control TLB
Pseudomonas fluorescens [2] = test: Minimum Inhibitory Concentration Test, alternate (Table 4), Ps.fl; assay type: cell-based; conditions: TSB, 72 hours, 30° C; for MIC: Pseudomonas fluorescens
Procedure, shortened: (§1)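 Compound in acetone was diluted into TSB and serially diluted 1:1 from 250 ppm down to 0.8 ppm, in duplicate. Plates were inoculated with diluted 24 h culture and incubated 3 days at 30° C; MIC recorded as lowest concentration with no growth.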

[3] = system: Puccinia graminis (f. sp. tritici Race 15B-2); test: whole plant or invertebrate; assay type: in vivo; conditions: 336 h, read-out: % control WSR
[4] = system: Pseudomonas fluorescens (Ps.fl); test: MIC, broth two-fold serial dilution (Table 3), Ps.fl; assay type: cell-based; conditions: read-out: MIC Ps.fl
Source text: (§2) A minimum inhibitory concentration (MIC) value is obtained using a broth, two-fold serial dilution test performed as follows: A stock solution or dispersion of the test compound, typically at a concentration of 1%, is made in a 5:3:2 solvent solution of acetone, methanol, and water. A volume of the stock solution is dispensed into culture media to give an initial starting test concentration of 500 ppm compound.
(§3) When the test is ready to be done, each vessel in the dilution series, except the first vessel, contains an equal volume of compound free broth. The first vessel contains twice the volume of broth with the starting concentration of test compound. One half of the broth from the first vessel is transferred to the second vessel. After being mixed, one half the resulting volume is removed from the second vessel and transferred to the third vessel. The entire cycle is repeated sufficiently to give a series of concentrations amounting to 500, 250, 125, 63, 31, 16, 8, and 4 ppm, respectively.
(§4) Each vessel is then inoculated with a cell suspension of the appropriate test organism. Bacteria are grown in broth and fungi on agar slants for a time and at a temperature appropriate to the species being tested. At the end of the growth period, the broth is vortexed to disperse the cells. In the case of fungi, the spores are harvested by pipetting water onto the slant and dislodging the spores with a sterile loop. The cell/spore suspension is standardized by controlling incubation time, temperature, and the volume of the diluent. The suspension is then used to inoculate the vessels containing the broth compound. The vessels are then incubated at the appropriate temperature. After the incubation, the vessels are examined for growth/no growth. The minimum inhibitory concentration (MIC) is defined as the lowest concentration of compound that results in complete inhibition of growth of the test organism.
Pseudomonas fluorescens (Ps.fl), gram negative

Aspergillus niger (A.n) = test: MIC, broth two-fold serial dilution (Table 3), A.n; assay type: cell-based; conditions: read-out: MIC A.n
Source text: as §2, §3, §4

[5] = system: Staphylococcus aureus (S.a); test: MIC, broth two-fold serial dilution (Table 3), S.a; assay type: cell-based; conditions: read-out: MIC S.a
Source text: as §2, §3, §4
Staphylococcus aureus (S.a), gram positive

[6] = system: Pseudoperonospora cubensis; test: whole plant or invertebrate; assay type: in vivo
[7] = system: Pseudomonas aerugenosa (Ps.ae); test: MIC, broth two-fold serial dilution (Table 3), Ps.ae; assay type: cell-based; conditions: read-out: MIC Ps.ae
Source text: as §2, §3, §4
Pseudomonas aerugenosa (Ps.ae), gram negative

Piricularia oryzae = test: whole plant or invertebrate; assay type: in vivo
[8] = system: Aureobasidium pullulans (A.p); test: MIC, broth two-fold serial dilution (Table 3), A.p; assay type: cell-based; conditions: read-out: MIC A.p
Source text: as §2, §3, §4
Aureobasidium pullulans (A.p)

A.n = test: Minimum Inhibitory Concentration Test, alternate (Table 4), A.n; assay type: cell-based, Aspergillus niger; conditions: TSB, 72 hours; for MIC: Aspergillus niger
Procedure, shortened: as §1

[9] = system: Erysiphe graminis (f. sp. tritici); test: whole plant or invertebrate; assay type: in vivo
Escherichia coli (E.c) = test: MIC, broth two-fold serial dilution (Table 3), E.c; assay type: cell-based; conditions: read-out: MIC E.c
Source text: as §2, §3, §4
Escherichia coli (E.c), gram negative

ps.fl bacteria = test: Speed of Kill (SOK) test, 4 h, synthetic hard water (Table 3); assay type: cell-based; conditions: Pseudomonas fluorescens, read-out: SOK (concentration at which compound killed >99.999% of the cells)
Source text: The Speed of Kill (SOK) Test measures the loss of cell viability in an aqueous suspension of bacterial cells during a four hour period when these cells are contacted with a defined concentration of the test compound in synthetic hard water (SHW). A stock solution or dispersion of the test compound, typically at a concentration of 1%, is made in a 5:3:2 solvent solution of acetone, methanol, and water. The SHW is made by taking one liter of sterile deionized water and adding the following solutions to it:
1. 2 ml of a solution of 31.74 g of MgCl2 and 73.99 g of CaCl2 in 1000 ml of sterile distilled water which has been heat sterillized.
2. 4 ml of a solution of 56.03 g of NaHCO3 in 1000 ml of water which has been filter sterillized.
The combined solution is then filter sterilized to yield the SHW. A volume of the stock solution is dispensed into the SHW to give an initial test compound starting concentration of 500 ppm.
as §3, with “run,” for “done,”, “the SHW mixture with the test compound.” for “compound free broth.”, “SHW” for “broth”
Each vessel is then inoculated with a cell suspension of the ps.fl bacteria. The bacteria were grown on a 1% agar slant tube and incubated for 18-24 hours at 30° C. Thereafter, the tube is washed with four ml of sterile water. This was is diluted to a density of 60 to 80 Nephlolmeter Turbidity Units (NTU). To 100 ml of the SHW containing the various concentrations of the test compound is added 0.75 ml of inoculum from the 60-80 NTU wash with good mixing. After 4 hours from the time of addition at 30° C., 5 μl of solution is transferred to 100 μl of a broth solution in order to recover any living cells. This mixture is incubated for 24 hours at 30° C. before noting the concentration in ppm at which each compound killed >99.999% of the cells in the SHW solution.

[10] = system: Puccinia recondita (f. sp. tritici Races PKB and PLD); test: whole plant or invertebrate; assay type: in vivo
Pseudomonas fluorescens [11] = test: Speed of Kill Test, alternate, 24 h, synthetic hard water (Table 4); assay type: cell-based; conditions: Ps.fl in synthetic hard water, 100 ppm
[12] = Table 3, broth two-fold serial dilution
[13] = Pseudoperonospora cubensis, in Cucumis sativus, 168 h, read-out: % control CDM
[14] = Pyricularia oryzae, read-out: % control RB
[15] = Blumeria graminis, read-out: % control WPM
[16] = Table 3, Ps.fl in synthetic hard water, 4 hours, 30° C
[17] = Puccinia recondita, 240 h, read-out: % control WLR

| Compound | MIC (Pseudomonas fluorescens [2]) [mg/L] | MIC [4, 12] [mg/L] | MIC (Aspergillus niger (A.n)) [mg/L] | MIC [5, 12] [mg/L] | pest or weed control at 200 ppm [6, 13] [%] | MIC [7] [mg/L] | pest or weed control at 200 ppm (Piricularia oryzae; [14]) [%] | MIC [8, 12] [mg/L] | MIC (A.n) [mg/L] | pest or weed control at 300 ppm [9, 15] [%] | MIC (Escherichia coli (E.c); [12]) [mg/L] | MBC (ps.fl bacteria; [16]) [mg/L] | further results |
| --- | --- | --- | --- | --- | --- | --- | --- | --- | --- | --- | --- | --- | --- |
| CC(=O)C(S/C(Cl)=C(/Cl)C(=O)NC1CCCCC1)C(C)=O [Example 6, N-cyclohexyl-2,3-dichloro-cis-3-[3-(2,4-pentanedionyl)thio]acrylamide] | > 500 | > 500 | 125 (≈ 355 µM) | 16 (≈ 45.4 µM) | 85 | 32 (≈ 90.8 µM) | 70 | < 4 | > 500 | 0 | 500 (≈ 1420 µM) | > 500 | pest or weed control at 200 ppm ([1]; 120 h, read-out: % control RSB): 0%; pest or weed control at 300 ppm (Phytophthora infestans): 0%; pest or weed control at 300 ppm [3]: 0% |
| CCCCCCCCNC(=O)/C(Cl)=C(/Cl)SC(C(C)=O)C(C)=O [Example 2, N-n-octyl-2,3-dichloro-cis-3-[3-(2,4-pentanedionyl)thio]acrylamide] | > 500 | > 500 | 8 (≈ 20.9 µM) | < 4 | – | < 4 | – | < 4 | > 500 | 78 | > 500 | > 500 | pest or weed control at 300 ppm ([1]; 120 h, read-out: % control RSB): 0%; pest or weed control at 300 ppm (Phytophthora infestans): 10%; pest or weed control at 150 ppm [3]: 85%; pest or weed control at 300 ppm [6, 13]: 85%; pest or weed control at 300 ppm (Piricularia oryzae; [14]): 0% |
| CCCCCCCCNC(=O)/C=C\SC(C(C)=O)C(C)=O [Example 1, N-n-octyl-cis-3-[3-(2,4-pentanedionyl)thio]acrylamide] | > 500 | > 500 | 8 (≈ 25.5 µM) | < 4 | 100 | < 4 | 98 | < 4 | > 500 | 25 | > 500 | > 500 | pest or weed control at 200 ppm (Phytophthora infestans): 100%; pest or weed control at 100 ppm [3]: 50% |
| CCCCCCCCNC(=O)/C=C\SC(C(=O)Nc1cc(C)ccc1Cl)C(=O)OCC (stereo not drawn) [Example 42, N-n-octyl-cis-3-{2-[ethyl-N-(2-chloro-5-methylphenyl)malonamido]thio}acrylamide] | – | 8 (≈ 17.1 µM) | < 4 | 8 (≈ 17.1 µM) | – | > 500 | – | 16 (≈ 34.1 µM) | – | – | 500 (≈ 1070 µM) | 125 (≈ 266 µM) | pest or weed control at 100 ppm (Phytophthora infestans): 91% |
| CCCCCCCCNC(=O)/C=C\SC(C(=O)OCC)C(=O)c1ccccc1 (stereo not drawn) [Example 69, N-n-octyl-cis-3-[2-(ethoxy-3-phenyl-3-oxopropanoyl)thio]acrylamide] | – | – | 125 (≈ 308 µM) | – | – | 32 (≈ 78.9 µM) | – | – | – | – | – | – | MIC [4]: > 500 mg/L; MIC [5]: 16 mg/L (≈ 39.5 µM); MIC [8]: < 4 mg/L; MIC (Escherichia coli (E.c)): 500 mg/L (≈ 1230 µM); MBC (ps.fl bacteria; 4 h): > 500 mg/L |
| CCCCCCCCNC(=O)/C=C\SC(C(=O)NCCCCCCCC)C(=O)OCC (stereo not drawn) [Example 18, N-n-octyl-cis-3-[2-(ethyl-N-n-octylmalonamido)thio]acrylamide] | > 500 | – | < 4 | – | 97 | > 500 | 25 | – | > 500 | – | – | – | pest or weed control at 300 ppm ([1]; 120 h, read-out: % control RSB): 90%; pest or weed control at 200 ppm (Phytophthora infestans): 92%; pest or weed control at 200 ppm [10, 17]: 74%; MIC [4]: < 4 mg/L; MIC [5]: 8 mg/L (≈ 17.5 µM); MIC [8]: < 4 mg/L; pest or weed control at 200 ppm [9, 15]: 0%; MIC (Escherichia coli (E.c)): 250 mg/L (≈ 547 µM); MBC (ps.fl bacteria; 4 h): 16 mg/L (≈ 35 µM) |
| CCCCCCCCNC(=O)/C=C\SC(C(=O)NCc1cccnc1)C(=O)OCC (stereo not drawn) [Example 49, N-n-octyl-cis-3-{2-[ethyl-N-((3-pyridyl)methyl)malonamido]thio}acrylamide] | – | > 500 | < 4 | < 4 | – | < 4 | – | < 4 | – | – | > 500 | > 500 | pest or weed control at 100 ppm ([1]; 120 h, read-out: % control RSB): 0%; pest or weed control at 100 ppm (Phytophthora infestans): 90%; pest or weed control at 100 ppm [10, 17]: 0%; pest or weed control at 100 ppm [6, 13]: 85%; pest or weed control at 100 ppm (Piricularia oryzae; [14]): 0%; pest or weed control at 100 ppm [9, 15]: 50% |
| N-n-octyl-cis-3-[2-(N-benzyl-N'-n-octylmalonodiamido)thio]acrylamide [Example 61] | – | – | – | – | – | – | – | – | – | – | – | – | % control RSB ([1]; in vivo): 0%; % control TLB (Phytophthora infestans; 100 ppm application rate): 0%; MIC Ps.fl (Pseudomonas fluorescens [2]): > 250 ppm; % control WLR ([10]; in vivo): 0%; SOK (Pseudomonas fluorescens [11]): > 100 ppm; % control CDM ([6]; in vivo): 99%; % control RB (Piricularia oryzae; in vivo): 0%; MIC A.n (A.n): > 250 ppm; % control WPM ([9]; in vivo): 0% |
